Key:
Type in all cases: in vivo
Nephotettix virescens = test: B.9 Rice Green Leafhopper, rice seedling spray test; conditions: adults, after 72 hours, read-out: mortality in comparison with untreated controls
Experimental: Four to five-week old rice seedlings with cut upper leaf portion were cleaned and washed 24 hours before spraying. The active compounds were formulated in 1:1 acetone:water (vol:vol), and 0.01% vol/vol surfactant (Kinetic) was added. Potted rice seedlings were sprayed with 5-6 ml test solution, air dried, covered with Mylar cages and inoculated with 10 adults. Treated rice plants were kept at about 28-29° C. and relative humidity of about 50-60%. Percent mortality was recorded after 72 hours.

Heliothis virescens = test: B.4 Tobacco Budworm, microtiter plate diet test; conditions: 120 h, egg and larval mortality, 5 days, read-out: mortality in comparison with untreated controls
Experimental: For evaluating control of Tobacco Budworm, the test unit consisted of 96-well-microtiter plates containing an insect diet and 15-25 H. virescens eggs. The compounds were formulated using a solution containing 75% v/v water and 25% v/v DMSO. Different concentrations of formulated compounds were sprayed onto the insect diet at 10 μl, using a custom-built micro atomizer, at two replications. After application, microtiter plates were incubated at about 28±1° C. and about 80±5% relative humidity for 5 days. Egg and larval mortality was then visually assessed.

Myzus persicae = test: B.3 Green Peach Aphid (mixed life stages), systemic artificial diet test; conditions: 72 h, treated aphid diet, 3 days, read-out: mortality in comparison with untreated controls
From the text: For evaluating control of Green Peach Aphid through systemic means the test unit consisted of 96-well-microtiter plates containing liquid artificial diet under an artificial membrane. The compounds were formulated using a solution containing 75% v/v water and 25% v/v DMSO. Different concentrations of formulated compounds were pipetted into the aphid diet, using a custom-built pipette, at two replications. After application, 5-8 adult aphids were placed on the artificial membrane inside the microtiter plate wells. The aphids were then allowed to suck on the treated aphid diet and incubated at about 23±1° C. and about 50±5% relative humidity for 3 days. Aphid mortality and fecundity was then visually assessed.

O=C(Nc1ncc(F)cc1F)c1cc(OC2=NOC(c3cc(Cl)c(F)c(Cl)c3)(C(F)(F)F)C2)ccc1Cl (stereo not drawn) [II-8, 2-chloro-5-[[5-(3,5-dichloro-4-fluoro-phenyl)-5-(trifluoromethyl)-4H-isoxazol-3-yl]oxy]-N-(3,5-difluoro-2-pyridyl)benzamide]
≥ 75%: mortality at 300 ppm (Nephotettix virescens) | mortality at 2500 ppm (Heliothis virescens) | mortality at 2500 ppm (Myzus persicae)

Reference: patent US12595239B2, “Substituted isoxazoline derivatives” (BASF SE, priority 2021, dated 2026)
